{"source": "patent US9578878B2", "about": "“Antimicrobial efficacy of an oregano oil and caprylic acid blend” (Kemin Industries, Inc., priority 2014, dated 2017)", "key": {"[1]": {"tested_on": "Aspergillus brasiliensis (ATCC #16404)", "assay": "Preservative efficacy test (USP 51) in cold process cream, Example 1", "assay_type": "cell-based", "details": "cream with caprylic acid, by the end of the study (28 days)", "description": "Creams were prepared aseptically by spraying 70% isopropyl alcohol on all surfaces and labware. Carbomer 940 and coco caprylate were obtained from BPI Labs, Inc. (Evanston, Wyo.). Safflower and olive oils were purchased from Jedwards International, Inc. (Quincy, Mass.). The cream formulations were as follows: […]\nPreservative studies were completed at different times for caprylic acid and 10% carvacrol in caprylic acid. The negative and positive controls were designated at A, B for the caprylic acid study and 1, 2 for the addition of carvacrol in Table 1. The change in positive control ingredients was due to a shift in the preservative used for regular KPC formulations.\nDI water was added to a pre-weighed 250 mL beaker and mixed at 800 rpm using an overhead mixer (Eurostar power-b IKA-WERKE, Wilmington, N.C.) with a 3 blade […] impeller. Carbomer 940 was slowly added to the center of the mixing water. The mixture was hydrated for 30 minutes while covered with aluminum foil. Glycerin quickly followed by Lysofix were slowly added to the solution. After 2 minutes, safflower oil, olive oil, and coco caprylate were slowly added to the mixture at 1000 rpm. The solution was mixed for 30 minutes while covered with aluminum foil. Next the pH was measured and adjusted to 5.5 with a 33.3% sodium hydroxide solution. The mixing speed was increased to 1400 rpm. From time to time, it was necessary to scrape the sides of the beaker with a spatula to ensure that the cream became homogenized. When the cream appeared homogenized, the amount of preservative or treatment was added. After 2 minutes, the cream was weighed and water added to reach a mass balance.\nMicroorganisms Escherichia coli (ATCC #8739), Staphylococcus aureus (ATCC #6538), Pseudomonas aeruginosa (ATCC #9027), and Candida albicans (ATCC #10231) were obtained from a −80° C. internal stock culture. Aspergillus brasiliensis (ATCC #16404) was obtained from an internal stock solution cultured stored at 4° C. E. coli, S. aureus, and P. aeruginosa were grown in tryptic soy broth (Bacto, BD Sciences, Manassas, Va.) and incubated at 37° C. for 24 h. A. brasiliensis was plated on Sabourand dextrose agar (Bacto, BD Sciences, Manassas, Va.) and incubated at 25° C. for 5-7 days. C. albicans was grown in Sabourand dextrose broth (Bacto, BD Sciences, Manassas, Va.) and incubated at 25° C. for 48 h.\nPathogens in broth were harvested by centrifugation (2400 rpm, 20 minutes) and suspended in sterile saline. A. brasiliensis was harvested by adding 18 mL sterile saline to the plate and agitating the mold from the agar with a sterile inoculating loop. The inoculum was collected upon agitation. All suspended microbes were diluted with sterile saline until an inoculum in the range of 10^8 CFU/mL was achieved. The inoculum concentration was determined by plate count method. Each strain was identified by plating on the appropriate growth media, E. coli, S. aureus, and P. aeruginosa on tryptic soy agar (Bacto, BD Sciences, Manassas, Va.) and C. albicans and A. brasiliensis on Sabrouand dextrose agar, to ensure there was no contamination of the inoculum.\nCreams were plated according to the SOP^1 to ensure they were sterile. Each prepared cream was inoculated with 0.1 mL of inoculum per 10 g of sample to reach the targeted inoculated concentration of 6-log cfu/g. Samples were vortexed for 2 minutes. The inoculated creams were incubated at 25° C. […]"}, "[2]": {"tested_on": "Pseudomonas aeruginosa (ATCC #9027)", "assay": "Preservative efficacy testing in cream, Example 2 (Study 1 and 2)", "assay_type": "cell-based", "details": "Study 1, cream with 0.5% or 1.0% caprylic acid, after 2 days", "description": "Oregano essential oil containing 67.8% carvacrol (lot number 628034, thymol was not detectable) was received from Kemin SCI. Caprylic acid was obtained from Fisher Scientific (catalog number AC12939). To make MicroCurb OC, a blend with 10% oregano essential oil and 90% caprylic acid (w/w) was prepared for initial testing. The solution was mixed thoroughly for 10 seconds by a vortex mixer until a clear, homogenous mixture was obtained, resulting in the product MicroCurb OC.\nCreams were prepared aseptically by spraying 70% isopropyl alcohol on all surfaces and glassware. Preservative studies were completed at different times for caprylic acid alone (Study 1) and MicroCurb OC (Study 2). Tables 5 and 6 list the various ingredients and their percentages used in Study 1 and 2, respectively.\nDe-ionized water was added to a pre-weighed 250 mL beaker and mixed at 800 rpm using an overhead mixer (Eurostar power-b IKA-WERKE, Wilmington, N.C.) with a 3 blade impeller. Carbomer 940 was slowly added to the center of the mixing water. The mixture was hydrated for 30 minutes while covered with aluminum foil. Glycerin and Lysofix were slowly added to the solution. After solution appeared homogenous, safflower oil, olive oil, and coco caprylate were slowly added to the mixture at 1000 rpm. The solution was mixed for 30 minutes while covered with aluminum foil. Next the pH was measured (around 3.2) and adjusted to 5.5 with a 33.3% sodium hydroxide solution. The mixing speed was increased to 1400 rpm. From time to time, it was necessary to scrape the sides of the beaker with a spatula to ensure that the cream became homogenized. After 5 minutes, the cream was weighed and water was replenished for the mass lost during the processing.\nMicroorganisms Escherichia coli (ATCC #8739), Staphylococcus aureus (ATCC #6538), Pseudomonas aeruginosa (ATCC #9027), and Candida albicans (ATCC #10231) were obtained from −80° C. internal stock cultures. Aspergillus brasiliensis (ATCC #16404) was obtained from an internal stock solution stored at 4° C. E. coli, S. aureus, and P. aeruginosa were grown in TSB and incubated at 37° C. for 24 h. A. brasiliensis was plated on SDA and incubated at 25° C. for 5-7 days. C. albicans was grown in SDB and incubated at 25° C. for 48 h.\nPathogens in broth were harvested by centrifugation (2400 rpm, 20 minutes) and suspended in sterile phosphate buffer. A. brasiliensis was harvested by adding 18 mL sterile phosphate buffer to the plate and agitating the mold from the agar with a sterile inoculating loop. The spores were collected upon agitation. All suspended microbes were diluted with sterile phosphate buffer until a concentration in the range of 10^8 CFU/mL was achieved. The concentration was determined by plate count method. Each strain was identified by plating on the appropriate growth media, E. coli, S. aureus, and P. aeruginosa on TSA and C. albicans and A. brasiliensis on SDA, to ensure there was no contamination of the inoculum.\nPreservative Efficacy Testing. Each tube was inoculated with the standardized microbial suspensions, using a ratio of 1 mL to 10 grams of the product, ensuring that the inoculum after suspension would yield the target level of 6-log CFU/g cream. For every testing time point, the sample was enumerated by sampling 1 g from the original product containers, serial dilution, and streaking plates containing the appropriate growth media to test colonization in duplicate. The inoculated plates were incubated at 25° C. for C. albicans and A. niger and 37° C. for E. coli, S. aureus, and P. aeruginosa. The number of viable microorganisms per gram was calculated via plate count method. The samples were enumerated on day 0, 2, 3, 5, 7, 14, and 28.\nThe plate counts obtained each day were averaged for each treatment. The results were shown graphically by the log count of each averaged value per treatment per day. For plates that had no growth, the lowest dilution plated was recorded."}}, "data": [{"smiles": "CCCCCCCC(=O)O", "note": "[Caprylic Acid, octanoic acid]", "values": [{"measurement": "Log reduction of A. brasiliensis", "setting": "[1]", "value": 2, "unit": "log"}, {"measurement": "Log reduction of P. aeruginosa", "setting": "[2]", "value": 5, "unit": "log"}]}]}
